Experimental data published in ChEMBL document CHEMBL2331514, “Structure-based design and synthesis of novel pseudosaccharine derivatives as antiproliferative agents and kinase inhibitors” (Eur J Med Chem, 2013).

Legend:
Type in all cases: functional
[1] = system: UACC-62; assay: Cytotoxicity against human UACC62 cells assessed as growth inhibition at 10 uM after 48 hrs by SRB assay; details: UACC-62, 48 h, read-out: GI
[2] = system: BT-549; assay: Cytotoxicity against human BT549 cells assessed as growth inhibition at 10 uM after 48 hrs by SRB assay; details: BT-549, 48 h, read-out: GI
[3] = system: SF-295; assay: Cytotoxicity against human SF295 cells assessed as growth inhibition at 10 uM after 48 hrs by SRB assay; details: SF-295, 48 h, read-out: GI
[4] = system: MOLT-4; assay: Cytotoxicity against human MOLT4 cells assessed as growth inhibition at 10 uM after 48 hrs by SRB assay; details: MOLT-4, 48 h, read-out: GI
[5] = system: NCI-H23; assay: Cytotoxicity against human NCI-H23 cells assessed as growth inhibition at 10 uM after 48 hrs by SRB assay; details: NCI-H23, 48 h, read-out: GI
[6] = system: ACHN; assay: Cytotoxicity against human ACHN cells assessed as growth inhibition at 10 uM after 48 hrs by SRB assay; details: read-out: GI
[7] = system: NCI-H226; assay: Cytotoxicity against human NCI-H226 cells assessed as growth inhibition at 10 uM after 48 hrs by SRB assay; details: NCI-H226, 48 h, read-out: GI
[8] = system: MDA-MB-435; assay: Cytotoxicity against human MDA-MB-435 cells assessed as growth inhibition at 10 uM after 48 hrs by SRB assay; details: MDA-MB-435, 48 h, read-out: GI
[9] = system: KM12; assay: Cytotoxicity against human KM12 cells assessed as growth inhibition at 10 uM after 48 hrs by SRB assay; details: KM12, 48 h, read-out: GI
[10] = system: OVCAR-5; assay: Cytotoxicity against human OVCAR5 cells assessed as growth inhibition at 10 uM after 48 hrs by SRB assay; details: OVCAR-5, 48 h, read-out: GI
[11] = system: CCRF-CEM; assay: Cytotoxicity against human CCRF-CEM cells assessed as growth inhibition at 10 uM after 48 hrs by SRB assay; details: read-out: GI
[12] = system: OVCAR-8; assay: Cytotoxicity against human OVCAR8 cells assessed as growth inhibition at 10 uM after 48 hrs by SRB assay; details: OVCAR-8, 48 h, read-out: GI
[13] = system: MDA-MB-468; assay: Cytotoxicity against human MDA-MB-468 cells assessed as growth inhibition at 10 uM after 48 hrs by SRB assay; details: MDA-MB-468, 48 h, read-out: GI
[14] = system: SR; assay: Cytotoxicity against human SR cells assessed as growth inhibition at 10 uM after 48 hrs by SRB assay; details: read-out: GI
[15] = system: T47D; assay: Cytotoxicity against human T47D cells assessed as growth inhibition at 10 uM after 48 hrs by SRB assay; details: read-out: GI
[16] = system: HCC 2998; assay: Cytotoxicity against human HCC2998 cells assessed as growth inhibition at 10 uM after 48 hrs by SRB assay; details: HCC 2998, 48 h, read-out: GI
[17] = system: M14; assay: Cytotoxicity against human M14 cells assessed as growth inhibition at 10 uM after 48 hrs by SRB assay; details: M14, 48 h, read-out: GI
[18] = system: PC-3; assay: Cytotoxicity against human PC3 cells assessed as growth inhibition at 10 uM after 48 hrs by SRB assay; details: PC-3, 48 h, read-out: GI
[19] = system: UACC-257; assay: Cytotoxicity against human UACC257 cells assessed as growth inhibition at 10 uM after 48 hrs by SRB assay; details: UACC-257, 48 h, read-out: GI
[20] = system: OVCAR-3; assay: Cytotoxicity against human OVCAR3 cells assessed as growth inhibition at 10 uM after 48 hrs by SRB assay; details: OVCAR-3, 48 h, read-out: GI
[21] = system: Hs-578T; assay: Cytotoxicity against human Hs578T cells assessed as growth inhibition at 10 uM after 48 hrs by SRB assay; details: read-out: GI
[22] = system: SW-620; assay: Cytotoxicity against human SW620 cells assessed as growth inhibition at 10 uM after 48 hrs by SRB assay; details: SW-620, 48 h, read-out: GI
[23] = system: COLO 205; assay: Cytotoxicity against human COLO205 cells assessed as growth inhibition at 10 uM after 48 hrs by SRB assay; details: COLO 205, 48 h, read-out: GI
[24] = system: SK-MEL-2; assay: Cytotoxicity against human SK-MEL-2 cells assessed as growth inhibition at 10 uM after 48 hrs by SRB assay; details: SK-MEL-2, 48 h, read-out: GI
[25] = system: MCF7; assay: Cytotoxicity against human MCF7 cells assessed as growth inhibition at 10 uM after 48 hrs by SRB assay; details: MCF7, 48 h, read-out: GI
[26] = system: HCT-116; assay: Cytotoxicity against human HCT116 cells assessed as growth inhibition at 10 uM after 48 hrs by SRB assay; details: HCT-116, 48 h, read-out: GI
[27] = system: MDA-MB-231; assay: Cytotoxicity against human MDA-MB-231 cells assessed as growth inhibition at 10 uM after 48 hrs by SRB assay; details: MDA-MB-231, 48 h, read-out: GI
[28] = system: DU-145; assay: Cytotoxicity against human DU145 cells assessed as growth inhibition at 10 uM after 48 hrs by SRB assay; details: DU-145, 48 h, read-out: GI
[29] = Cytotoxicity against human NCI-ADR-RES cells assessed as growth inhibition at 10 uM after 48 hrs by SRB assay; details: read-out: GI
[30] = system: HT-29; assay: Cytotoxicity against human HT-29 cells assessed as growth inhibition at 10 uM after 48 hrs by SRB assay; details: HT-29, 48 h, read-out: GI
[31] = Cytotoxicity against human EKVX cells assessed as growth inhibition at 10 uM after 48 hrs by SRB assay; details: read-out: GI
[32] = system: 786-0; assay: Cytotoxicity against human 786-0 cells assessed as growth inhibition at 10 uM after 48 hrs by SRB assay; details: 786-0, 48 h, read-out: GI
[33] = system: HCT-15; assay: Cytotoxicity against human HCT15 cells assessed as growth inhibition at 10 uM after 48 hrs by SRB assay; details: HCT-15, 48 h, read-out: GI
[34] = system: SK-OV-3; assay: Cytotoxicity against human SKOV3 cells assessed as growth inhibition at 10 uM after 48 hrs by SRB assay; details: SK-OV-3, 48 h, read-out: GI
[35] = system: SN12C; assay: Cytotoxicity against human SN12C cells assessed as growth inhibition at 10 uM after 48 hrs by SRB assay; details: read-out: GI
[36] = system: NCI-H460; assay: Cytotoxicity against human NCI-H460 cells assessed as growth inhibition at 10 uM after 48 hrs by SRB assay; details: NCI-H460, 48 h, read-out: GI
[37] = system: UO-31; assay: Cytotoxicity against human UO31 cells assessed as growth inhibition at 10 uM after 48 hrs by SRB assay; details: UO-31, 48 h, read-out: GI
[38] = system: SF-539; assay: Cytotoxicity against human SF539 cells assessed as growth inhibition at 10 uM after 48 hrs by SRB assay; details: SF-539, 48 h, read-out: GI

| Structure (SMILES) | inhibition of growth at 10 µM [1] | inhibition of growth at 10 µM [2] | inhibition of growth at 10 µM [3] | inhibition of growth at 10 µM [4] | inhibition of growth at 10 µM [5] | inhibition of growth at 10 µM [6] | inhibition of growth at 10 µM [7] | inhibition of growth at 10 µM [8] | inhibition of growth at 10 µM [9] | inhibition of growth at 10 µM [10] | inhibition of growth at 10 µM [11] | inhibition of growth at 10 µM [12] | inhibition of growth at 10 µM [13] | inhibition of growth at 10 µM [14] | inhibition of growth at 10 µM [15] | inhibition of growth at 10 µM [16] | inhibition of growth at 10 µM [17] | inhibition of growth at 10 µM [18] | inhibition of growth at 10 µM [19] | inhibition of growth at 10 µM [20] | further results |
| --- | --- | --- | --- | --- | --- | --- | --- | --- | --- | --- | --- | --- | --- | --- | --- | --- | --- | --- | --- | --- | --- |
| O=C(Nc1ccc(OC2=NS(=O)(=O)c3ccccc32)cc1)Nc1ccccc1Cl | 16% | 22% | 8% | 24% | 8% | 21% | 25% | 5% | 10% | 3% | 57% | 1% | 8% | 9% | 8% | -5% | 2% | 9% | -17% | 3% | inhibition of growth at 10 µM [21]: -1%; inhibition of growth at 10 µM [22]: -5%; inhibition of growth at 10 µM [23]: -17%; inhibition of growth at 10 µM [24]: -1%; inhibition of growth at 10 µM [25]: 23%; inhibition of growth at 10 µM [26]: 1%; inhibition of growth at 10 µM [27]: 63%; inhibition of growth at 10 µM [28]: 3%; inhibition of growth at 10 µM [29]: 13%; inhibition of growth at 10 µM [30]: 4%; inhibition of growth at 10 µM [31]: -3%; inhibition of growth at 10 µM [32]: 11%; inhibition of growth at 10 µM [33]: 8%; inhibition of growth at 10 µM [34]: -7%; inhibition of growth at 10 µM [35]: 17%; inhibition of growth at 10 µM [36]: -4%; inhibition of growth at 10 µM [37]: 33%; inhibition of growth at 10 µM [38]: 6% |
| O=C(Nc1ccc(Cl)cc1)Nc1ccc2c(c1)C(Nc1ccc(Cl)cc1Cl)=NS2(=O)=O | 71% | 49% | 96% | 73% | 92% | 85% | 63% | 65% | 80% | 40% | 82% | 65% | 74% | 60% | 87% | 72% | 63% | 82% | 38% | 98% | inhibition of growth at 10 µM [21]: 9%; inhibition of growth at 10 µM [22]: 69%; inhibition of growth at 10 µM [23]: 77%; inhibition of growth at 10 µM [24]: 50%; inhibition of growth at 10 µM [25]: 79%; inhibition of growth at 10 µM [26]: 91%; inhibition of growth at 10 µM [27]: 43%; inhibition of growth at 10 µM [28]: 71%; inhibition of growth at 10 µM [29]: 79%; inhibition of growth at 10 µM [30]: 57%; inhibition of growth at 10 µM [31]: 71%; inhibition of growth at 10 µM [32]: 73%; inhibition of growth at 10 µM [33]: 76%; inhibition of growth at 10 µM [34]: 15%; inhibition of growth at 10 µM [35]: 67%; inhibition of growth at 10 µM [36]: 87%; inhibition of growth at 10 µM [37]: 70%; inhibition of growth at 10 µM [38]: 42% |
| O=C(Nc1ccccc1)Nc1ccc(OC2=NS(=O)(=O)c3ccccc32)cc1 | 21% | 12% | 32% | 32% | 6% | 12% | 20% | 15% | 58% | 13% | 41% | 5% | 20% | 36% | 23% | 20% | 42% | 11% | -1% | -9% | inhibition of growth at 10 µM [21]: 13%; inhibition of growth at 10 µM [22]: 2%; inhibition of growth at 10 µM [23]: -9%; inhibition of growth at 10 µM [24]: -2%; inhibition of growth at 10 µM [25]: 17%; inhibition of growth at 10 µM [26]: 10%; inhibition of growth at 10 µM [27]: 63%; inhibition of growth at 10 µM [28]: 18%; inhibition of growth at 10 µM [29]: 21%; inhibition of growth at 10 µM [30]: 52%; inhibition of growth at 10 µM [31]: -3%; inhibition of growth at 10 µM [32]: 26%; inhibition of growth at 10 µM [33]: 48%; inhibition of growth at 10 µM [34]: -13%; inhibition of growth at 10 µM [35]: 18%; inhibition of growth at 10 µM [36]: 21%; inhibition of growth at 10 µM [37]: 13%; inhibition of growth at 10 µM [38]: 21% |
| Cc1ccc(NC2=NS(=O)(=O)c3ccc(NC(=O)CCC(=O)O)cc32)cc1 | 6% | -8% | 1% | -3% | 1% | -5% | 13% | 0% | -13% | 1% | 2% | -10% | -6% | -5% | 5% | -4% | -2% | -2% | -25% | -16% | inhibition of growth at 10 µM [21]: -2%; inhibition of growth at 10 µM [22]: 1%; inhibition of growth at 10 µM [23]: -11%; inhibition of growth at 10 µM [24]: -6%; inhibition of growth at 10 µM [25]: 8%; inhibition of growth at 10 µM [26]: -6%; inhibition of growth at 10 µM [27]: 6%; inhibition of growth at 10 µM [28]: -11%; inhibition of growth at 10 µM [29]: -3%; inhibition of growth at 10 µM [30]: -3%; inhibition of growth at 10 µM [31]: -4%; inhibition of growth at 10 µM [32]: 2%; inhibition of growth at 10 µM [33]: -13%; inhibition of growth at 10 µM [34]: -11%; inhibition of growth at 10 µM [35]: 6%; inhibition of growth at 10 µM [36]: -7%; inhibition of growth at 10 µM [37]: 12%; inhibition of growth at 10 µM [38]: 1% |
